Results taken from article PMC4886613 (Journal of natural products, 2009).

How the values were obtained:
Format in all cases: cell-based
[1] = system: culture of Leishmania donovani; assay: in vitro antileishmanial activity; conditions: in words
[2] = system: Plasmodium falciparum; assay: antimalarial activity; conditions: in words; clone not specified
[3] = system: Plasmodium falciparum (D6 clone); assay: in vitro antimalarial activity, D6 clone; conditions: D6, read-out: antimalarial P. falciparum D6 (IC50)
[4] = system: P. falciparum (W2 clone); assay: microbe, parasite or virus in culture; conditions: Plasmodium falciparum, W2, read-out: antimalarial P. falciparum W2 (IC50)
[5] = system: Candida albicans ATCC 90028; assay: in vitro antifungal activity, Candida albicans; conditions: ATCC90028, read-out: antifungal C. albicans IC50

| Structure (SMILES) | antileishmanial activity [1] | antimalarial activities [2] | other results |
| --- | --- | --- | --- |
| CCCCCc1cc(O)c(C/C=C(\C)CCC=C(C)C)c(OC(C)=O)c1O [Compound 5, 5-acetyl-4-hydroxycannabigerol] | strong antileishmanial activity | mild antimalarial activities | – |
| CCCCCc1c(C/C=C(\C)CCC=C(C)C)c(O)cc(O)c1OC(C)=O [Compound 6, 4-acetoxy-2-geranyl-5-hydroxy-3-n-pentylphenol] | moderate antileishmanial activity | – | – |
| CCN(CC)CCCC(C)Nc1ccnc2cc(Cl)ccc12 (stereo not drawn) [chloroquine] | – | – | IC50 [3]: 100 nM; IC50 [4]: 500 nM |
| CCCCCc1cc(O)c2c(c1OC(C)=O)OC(C)(CCC=C(C)C)C=C2 (racemic) [Compound 1, (±)-4-acetoxycannabichromene] | moderate antileishmanial activity | mild antimalarial activities | – |
| C[C@@H]1[C@H](O)[C@@H](C)/C=C/C=C/C=C/C=C/C=C/C=C/C=C/[C@H](O[C@@H]2O[C@H](C)[C@@H](O)[C@H](N)[C@@H]2O)C[C@@H]2O[C@](O)(C[C@@H](O)C[C@@H](O)[C@H](O)CC[C@@H](O)C[C@@H](O)CC(=O)O[C@H]1C)C[C@H](O)[C@H]2C(=O)O [amphotericin B] | – | – | IC50 [5]: 300 nM |
| C=C(C)C(O)CCC1(C)C=Cc2c(O)cc(CCCCC)cc2O1 (racemic) [Compound 2, (±)-3″-hydroxy-Δ^(4″,5″)-cannabichromene] | moderate antileishmanial activity | – | – |
